Results taken from patent US20260137652A1, “Composition Comprising Non-Phosphorylated Tryptamine” (SINTALICA S.R.L., priority 2022, published 2026).

Tests used:
[1] = Stability test of psilocin for 24 hours: darkening and psilocin concentration by UHPLC-MS; format: physicochemical
Experimental: The inclusion complex obtained by the resuspension of the freeze-dried complex of (β-carotene and 2-hydroxypropylether p-cyclodextrin in the ratio 1:5 with 3 mg of psilocin dissolved in 1 mL of H2O:EtOH (8:2) solution, was tested to evaluate the inclusion complex stability.
The complex stability was evaluated for 24 hours, under different environmental conditions: • Sample A) 22° C. with no light irradiation • Sample B) 30° C. with no light irradiation • Sample C) 22° C. under UV irradiation (using an UVA lamp A=365 nm) • Sample D) Freeze-dried for 30 days • Sample E) 30° C. under UV irradiation (using an UVA lamp A=365 nm)
All the complex stability tests were compared to a “blank” psilocin solution in H2O:EtOH (8:2).
For evaluating psilocin stability chromatographic analyses were performed using a Nexera X2 UHPLC system coupled to a LCMS-8060 mass spectrometer (Shimadzu, Duisburg, Germany). Data acquisition and processing was performed using the LabSolutions software (version 5.95 Shimadzu). The separation of the various tryptamines was achieved by using an Ascentis Express 90 HILIC column (150×2.1 mm, 2.7 pm) (Merck Life Science) and a mobile phase composed of ammonium formate 0.1 M in water as solvent A, and acetonitrile as solvent B. The gradient program was as follows: 0 min, 90% B; 3 min, 75% B; 10 min, 20% B; 13 min 20% B; 15 min 90% B. The flow rate was 0.5 mL min−1; the column oven was set at 40° C. and the injection volume was 1 pL. Mobile phases were filtered through a 0.45 µm membrane.
The synthetic psilocin was weighed in a volumetric flask and diluted with water: ethanol (8:2) at a concentration of 3000 ppm. Then, it was serially diluted to get a final concentration of 0.10 ppm and analyzed according to the above reported method, in order to verify the stability for 24 hours. At time 0, it was 0.11 ppm. After 24 hours the concentration decreased to 0.04 ppm, showing a concentration loss of 60%.

paw tissues = test: Histology (H&E staining) of paw tissues after CAR injection; format: in vivo, Sprague-Dawley rats; settings: for inflammatory cell infiltration and edema / histological score (H&E): rat paw tissues 6 h after CAR injection
Experimental: (§1) The biological effect of the complex, in comparison with the psilocin solution, against inflammation was tested by their administration to 8-12 weeks old male rats.
(§2) A composition comprising complex according to example 1, wherein the ratio of β-carotene to 2-hydroxypropylether β-cyclodextrin was 1:5, was used. Complexes (psilocin, β-carotene, ascorbic acid with ratio 1:1:1 and 2-hydroxypropylether β-cyclodextrin) containing two different concentrations of psilocin have been tested: • a complex containing 3 mg of psilocin, • a complex containing 10 mg of psilocin.
(§3) The study was performed using male Sprague-Dawley rats (200-250 g; Envigo, Milan, Italy). Food and water were accessible ad libitum. Rats were concurrently subjected to a singular subplantar injection of CAR (100 pL of saline solution containing 1% CAR). Paw edema was measured with a plethysmometer (Ugo Basile, Comerio, Varese, Italy) (Salvemini, D.; Wang, Z.-Q.; Wyatt, P. S.; Bourdon, D. M.; Marino, M. H.; Manning, P. T.; Currie, M. G., “Nitric oxide: A key mediator in the early and late phase of carrageenan-induced rat paw inflammation”, Br. J. Pharmacol. 1996, 118, 829-838) prior to CAR injection and every hour for 6 h. Edema was expressed as the increase in paw volume (mL) after CAR injection relative to the pre-injection value for all animals. Scores were expressed as paw volume difference (mL).
Paw tissues were collected 6 h after CAR injection. Samples were fixed in 10% formaldehyde solution in phosphate buffer saline (PBS) at room temperature for 24 h, dehydrated by graded series of ethanol and at the list embedded in Paraplast (Sherwood Medical, Mahwah, NJ, USA). Sections of 7-pm thickness were cut with a microtome, deparaffinized with xylene and stained with hematoxylin and eosin (H&E). All sections were examined using an Axiovision Zeiss (Milan, Italy) microscope by two investigators blinded to the treatment conditions. […]
All values are expressed as mean±standard deviation (SD) of N=10 observations. […] Data were analyzed by one-way ANOVA followed by a Bonferroni post-hoc test for multiple comparisons. […]

mechanical allodynia = test: Pain behavior: mechanical allodynia, Von Frey test after CAR injection; format: in vivo, Sprague-Dawley rats; settings: rats, 1-6 hours post CAR injection, as compared to CAR group
CAR-induced paw edema = test: CAR-induced paw edema, paw volume by plethysmometer; format: in vivo, Sprague-Dawley rats; settings: rats, measured every hour for 6 h after CAR, vs CAR group
Experimental: as §1, §2, §3
All values are expressed as mean±standard deviation (SD) of N=10 observations. For the in-vivo studies, N represents the number of animals studied. Data were analyzed by one-way ANOVA followed by a Bonferroni post-hoc test for multiple comparisons. A p-value less than 0.05 will be considered significant. #p<0.05 vs. CTR, *p<0.05 vs. CAR, ##p<0.01 vs. CTR, **p<0.01 vs. CAR, ###p<0.001 vs. CTR, ***p<0.001 vs. CAR, °p<0.05 vs. 3 m/Kg, § p<0.05 vs. 10 mg/Kg, °°p<0.01 vs. 3 mg/Kg, §§ p<0.01 vs. 10 mg/Kg, 000 p<0.001 vs. 3 mg/Kg, §§§ p<0.001 vs. 10 mg/Kg.

MPO = MPO analysis (marker of neutrophil infiltration) after CAR injection; format: in vivo, Sprague-Dawley rats; settings: rats; for MPO activity: vs CAR group
Experimental: as §1, §2, §3
The activity of MPO (myeloperoxidase is an enzyme released by neutrophils and used as a marker of neutrophil infiltration) was assessed as previously described (Mullane, K. M.; Kraemer, R.; Smith, B. “Myeloperoxidase activity as a quantitative assessment of neutrophil infiltration into ischemic myocardium.” J. Pharmacol. Methods 1985, 14, 157-167). The rate of change in absorbance was calculated spectrophotometrically at 650 nm. MPO activity was measured in U per gram weight of wet tissue and was quantified as the quantity of enzyme degrading […] of peroxide 1 min at 37° C.
All values are expressed as mean±standard deviation (SD) of N=10 observations. For the in-vivo studies, N represents the number of animals studied. […]

[2] = Stability test by NMR spectroscopy; format: physicochemical; settings: Sample A: 22° C. with no light irradiation
Experimental: The same specimens were analyzed also by NMR Spectroscopy using Varian 500 MHz spectrometer equipped with a OneNMR probe.
Samples were recorded using a PRESAT pulse sequence suppressing the signal of H2O and EtOH acquiring 128 scans for each spectrum. H2O (4.64 ppm) was used as reference line.
For the NMR analysis, all samples were treated as follow: 530 pL were poured into NMR tube (5 mm i.d.) then coaxial tube was filled with D2O to lock the solvent frequency.

[3] = Sample B: 30° C. with no light irradiation, 24 hours

## CN(C)CCc1c[nH]c2cccc(O)c12 [psilocin, 4-hydroxy-N,N-dimethyltryptamine]
[1]; Sample A: 22° C. with no light irradiation, 24 h
  darkening: started the darkening process since the first 2 hours of storing
[1]; Sample A: 22° C. with no light irradiation, H2O:EtOH (8:2), after 24 hours
  psilocin concentration after 24 hours: 0.04 ppm
[1]; Sample A: 22° C. with no light irradiation, H2O:EtOH (8:2), time 0
  psilocin concentration at time 0: 0.11 ppm
[1]; Sample A: 22° C. with no light irradiation, after 24 hours
  loss of psilocin concentration: 60%
[1]; Sample A: 22° C. with no light irradiation, time 0 vs after 24 hours
  psilocin concentration trend: decreased
[1]; [3]
  darkening: darkening process was observed
  psilocin concentration trend: decreased during 24 hours
[1]; Sample C: 22° C. under UV irradiation (365 nm), 24 h
  darkening: started the darkening process since the first 2 hours of storing
[1]; Sample C: 22° C. under UV irradiation (365 nm), 24 hours
  psilocin concentration trend: decreasing during 24 hours
[1]; Sample D: freeze-dried, redissolved 30 days after freeze-drying, ambient temperature, 24 h
  darkening: started the darkening process since the first 2 hours of storing
[1]; Sample E: 30° C. under UV irradiation (365 nm), 24 h
  darkening: Darkening was observed
[1]; Sample E: 30° C. under UV irradiation (365 nm), 24 hours
  psilocin concentration trend: decreased during 24 hours
Paw tissues; 3 mg/Kg
  inflammatory cell infiltration and edema / histological score (H&E): meaningfully decreased
Paw tissues; 10 mg/Kg
  inflammatory cell infiltration and edema / histological score (H&E): meaningfully decreased
Paw tissues; all doses (3 and 10 mg/Kg), rats
  histological anti-inflammatory effect of psilocin as compared to the complex administration: better anti-inflammatory effect
Mechanical allodynia; 3 mg/Kg
  paw-withdrawal threshold (Von Frey): significantly increased
Mechanical allodynia; 10 mg/Kg
  paw-withdrawal threshold (Von Frey): significantly increased
CAR-induced paw edema; 3 mg/Kg
  CAR-induced paw edema (paw volume): reduction of paw volume
CAR-induced paw edema; 3 mg/Kg, listed as Psilocin
  CAR-induced paw edema (paw volume): significantly reduced
CAR-induced paw edema; 10 mg/Kg
  CAR-induced paw edema (paw volume): reduction of paw volume
CAR-induced paw edema; 10 mg/Kg, listed as Psilocin
  CAR-induced paw edema (paw volume): significantly reduced
MPO; 3 mg/Kg
  MPO activity: reduced the MPO activity
MPO; 10 mg/Kg
  MPO activity: reduced the MPO activity
MPO; all doses (3 and 10 mg/Kg)
  MPO activity effect of psilocin as compared to the complex administration: significant effect
[2]
  degradation product by NMR compared with the other solutions: less degradation product
